Where two headings read alike, the source gives them in different places. Marks after values point to notes of the source that are not given here.

Broadly, the clearance is the volume of plasma or blood freed of the substance per unit of time. A low value points to inefficient removal. Broadly, the half-life is how long it takes for the measured level to halve. The low end stands for fast loss, the high end for slow loss. A word on the EC50: it is the concentration needed to bring the measured effect to its halfway point.

Data set [1] can be described thus: Pharmacokinetics of brimonidine drug delivery systems administered subconjunctivally. The class given is in vivo, New Zealand White rabbits. Conditions: all samples, subconjunctival drug delivery systems, rabbit. The text has this: Thirty groups of rabbits (2 rabbits per group) were used. The groups were divided into 6 sections of 5 groups. […] In each section, one group underwent ophthalmic observation at 5 days after dosing (DAD) and were euthanized at 8 DAD, one group underwent ophthalmic observation at 5 and 29 DAD and were euthanized at 31 DAD, one group underwent ophthalmic observation at 5, 29, and 54 DAD and were euthanized at 60 DAD, and two groups underwent ophthalmic observation at 5, 29, 54, and 86 DAD and were euthanized at 93 DAD.
Eyes were prepared for surgery by topical application of two drops of 1% tropicamide and two drops of phenylephrine hydrochloride 2.5%. Betadine was applied and washed from the eyes, and 1-2 drops of 0.5% proparacaine hydrochloride were delivered to each eye. […] Rods and wafers were administered using forceps. Conjunctivae were sutured closed and received a ocular lubricant. Subconjunctival injections were performed by elevating the bulbar conjunctiva in the dorsotemporal quadrant using forceps. An injection was made into the subconjunctival space.
In the above, the samples were quantified using LC-MS/MS methods with quantitation limits of 10 ng/mL for aqueous and vitreous humor samples, 0.05 ng/mL for plasma samples, 0.5 ng for iris-ciliary body samples, lens samples, and retina samples.

The conditions of data set [2]: intravitreal PLA implant, 200 micrograms brimonidine, rabbit eyes.
Data set [3] can be described thus: in vivo. The settings on record: albino, rabbit, vitreous humor, 928 ng.
Data set [4] in a line: in vivo. Conditions: rabbit, other: intravitreal implant, 200 micrograms.
Data set [5] concerns the target alpha 2 adrenergic receptor. The settings on record: read-out: EC50 to activate the alpha 2 adrenergic receptor; isolated assay systems; cited from earlier work.
Data set [6] relates to organic cation transporter present in the conjunctiva. Conditions: cited from earlier work.
The conditions of data set [7]: cited from earlier work.

Regarding `Brc1c(NC2=NCCN2)ccc2nccnc12` [brimonidine, 5-bromo-6-(2-imidazolidinylideneamino)quinoxaline], the Plasma brimonidine concentrations result in data set [1] is listed as “below the lower limit of quantitation”. Besides, for the setting “as restated in Example 3”, the vitreal clearance rate came out at 0.487 mL/day. The “route of elimination from the vitreous” value (conclusion from intravitreal clearance, rabbit) is “trans-retinal route”. For the same molecule, in data set [2] (Day 8, mean (N = 2)), the “Brimonidine Concentration Iris-ciliary body” value is reported as 942 ng/g. For the same molecule, in data set [2] (Day 8, two samples above the limit of quantitation), the “Brimonidine Concentration Iris-ciliary body, estimated mean value in parentheses” value is reported as 3010 ng/g. The “Brimonidine Concentration Vitreous humor” value in data set [2] (Day 31, mean ± SEM) is listed as 9.35 ± 6.25^b ng/mL. Also, in data set [2] (Day 58, mean ± SEM), the “Brimonidine Concentration Lens” value was 17.9 ± 12.5^b ng/g, the “Brimonidine Concentration Retina” value is reported as 122 ± 57.3^a ng/g and the “Brimonidine Concentration Vitreous humor” value is on record as 5.6 ± 3.24^b ng/mL. Besides, in data set [2] (Day 91, mean ± SEM), the “Brimonidine Concentration Iris-ciliary body” value is given as 42.9 ± 18.7^c ng/g and the “Brimonidine Concentration Retina” value is recorded as 488 ± 471^b ng/g. Besides, the “Brimonidine Concentration Lens” value in data set [2] (Day 136, mean ± SEM) is recorded as 16.2 ± 12.3^a ng/g. Also, in data set [2] (Day 184, mean ± SEM), the “Brimonidine Concentration Lens” value is recorded as 1.18 ± 0.71^b ng/g and the “Brimonidine Concentration Retina” value is reported as 59.8 ± 35.0^b ng/g. In the data set “in vivo [3]”, this molecule gave a clearance of 0.00812 mL/min and a half-life of 1.45 h. In the data set “in vivo [3]” (other: intravitreal injection), the concentration at 0.5 h turned out to be 608 ± 116 ng/mL and the concentration at 10 h is 9.68 ± 6.48 ng/mL. In “in vivo [4]” (iris-ciliary body), the concentration at 31 day was determined as 25.9 ± 9.11 ng/g, the concentration at 58 day amounted to 69.4 ± 55.3 ng/g and the concentration at 136 day came to 107 ± 41.5 ng/g. Moreover, in the data set “in vivo [4]” (lens), the concentration at 8 day was 45.1 ± 13.4 ng/g, the concentration at 31 day turned out to be 17 ± 3.92 ng/g and the concentration at 91 day stood at 50.1 ± 14.8 ng/g. In “in vivo [4]” (retina), this molecule gave a concentration at 8 day of 3630 ± 2110 ng/g, a concentration at 31 day of 35.3 ± 15.5 ng/g and a concentration at 136 day of 22.6 ± 5.9 ng/g. In the data set “in vivo [4]” (vitreous humor), this molecule came in with a concentration at 8 day of 47.2 ± 13.1 ng/mL and a concentration at 91 day of 59.3 ± 43.2 ng/mL. Besides, the EC50 in data set [5] was around 2 nM. Also, the “substrate for the organic cation transporter” value in data set [6] was “substrate”.
As to brimonidine tartrate, the solubility in water in data set [7] (in water) is listed as 34 mg/mL. Moreover, in data set [7] (pH 7.0 phosphate buffer), the “solubility in a pH 7.0 phosphate buffer” value is given as 2.4 mg/mL.

(Values after patent publication US7931909B2, “Ocular therapy using alpha-2 adrenergic receptor compounds having enhanced anterior clearance rates” (Allergan, Inc., priority 2005, dated 2011).)
